The text below walks through data of patent US8771733B2, “Pharmaceutical composition containing an anti-nucleating agent” (Merck Sharp & Dohme Corp., priority 2004, dated 2014).

Where a name gives a salt, the structure may show the parent alone.

Data set [1] in a line: Hygroscopicity (vapor sorption analysis). Type of data set: physicochemical. The method, then:
Hygroscopicity data was obtained on a VTI Symmetrical Vapor Sorption Analyzer Model SGA-1. Data was collected at room temperature from 5-95% relative humidity and back, 5% relative humidity change per step. Equilibrium conditions were 0.01 weight percent change in 5 minutes with a maximum equilibration time of 180 minutes.

Data set [2] in a line: In vitro dissolution studies with bulk drug and granules at 37° C. The data set is classed as physicochemical. The conditions noted are these: dissolution times of 60 to 180 minutes. Here is the method:
The dissolution properties of tablets prepared in the manner described in Part A of Example 3 (i.e., tablets containing 100 mg of Compound A on a free phenol basis and 0, 5, 10 or 15 wt. % HPMC) were tested in the following manner: Two tablets containing 0, 5, 10, or 15 wt. % HPMC were added to a USP Type II dissolution vessel containing 500 mL of 0.01 N HCl (pH=2) as the dissolution medium (ambient temperature). After the tablets were allowed to sink to the bottom of the vessel, the medium was stirred at 100 rpm for 60 minutes and then at 150 rpm for up to an additional 120 minutes. Samples (5 mL) were removed from medium at 5, 10, 15, 20, 30, 60, 90 and 120 minutes and at the conclusion of the test (180 minutes). Each sample was diluted 1:1 with 50:50 (volume:volume) acetonitrile:water, and then analyzed via HPLC or W spectrophotometry to determine the concentration of Compound A in the solution. (Note: The HPLC and UV methods were determined to be equivalent; the choice of method for a particular test was based on such factors as equipment availability.)
In vitro dissolution studies similar to the study described above, but conducted with unformulated bulk Compound A K salt and formulated bulk in granules and conducted at 37° C.

Consider `Cc1nnc(C(=O)NC(C)(C)c2nc(C(=O)NCc3ccc(F)cc3)c(O)c(=O)n2C)o1` [Compound A K salt], for which the “weight when equilibrated back down to 5% RH” value in data set [1] (5% RH, after 95% RH) is on record as “returned back to approximately its dry weight”. Besides, the “weight increase when equilibrated at 95% RH” value in data set [1] (95% RH at 25° C.) is given as 1.8%. For the same molecule, in data set [1] (after 5-95% RH and back), the “XRPD analysis of the material after the hygroscopicity experiment (phase)” value is given as “had not changed phases”. Besides, in data set [2], the “enhancement in drug solubility in the presence of HPMC versus absence of HPMC” value turned out to be 10 fold.
